One data set concerns ddY mice. The conditions noted are these: cited from earlier work.
Data set [1] can be described thus: Stability on human microsomes. It counts as in vitro ADME. On the set-up: dose or concentration left out as unconfirmed. The following applies: pooled liver microsomes, pH 7.4, 37 °C, NADPH-generating system, read-out: Stability on human microsomes T1/2. The protocol:
The metabolic stability of IP-DHA on human microsomes (microsomes S9, cryopreserved hepatocytes, recombinant CYP, and recombinant UGT) has been evaluated and expressed as percentage of IP-DHA remaining. IP-DHA was pre-incubated with pooled liver microsomes in phosphate buffer (pH 7.4) at 10 mM for 5 min in a 37 °C shaking water bath (IKA® RH basic KT/C). The reaction was initiated using the NADPH-generating system and incubated for 0, 15, 30, 45, and 60 min. The reaction was stopped by transferring the incubation mixture to acetonitrile/methanol (1:3 v/v ratio). Samples were then mixed and centrifuged at 3000 rpm (Sigma centrifuge 2K15) for 20 min to precipitate the protein, and supernatants were collected. IP-DHA concentration was determined using µHPLC-MS/MS analysis, as described in Section 2.2.3. The half-life (T1/2) was estimated from the slope of the initial linear range of the logarithmic curve of the compound remaining (%) vs. time, assuming first-order kinetics.
For orientation: Liver microsomes are a subcellular fraction often used to study metabolism.

The test system of data set [2] is ABCA4KO mice. Nature of the data set: Acute light-induced retinal degeneration, electroretinography. Type of data set: in vivo. The following applies: 100 mg/kg oral, 60 min before 20,000 Lux white light for 90 min, ERG 5 days later. As to the method: (§1) Mice between 8 and 16 weeks of age (both sexes), were weighed to adjust the quantity of administered compound for a dosage at 100, 50, or 17 mg/kg. Mice were orally fed with a 22-gauge needle containing SNEDDS or soybean oil as a control vehicle, IP-DHA solubilized in soybean oil (20 mg/mL), and SNEDDS-IP-DHA (30 mg/mL).
(§2) After the mice were dark-adapted (DA) for 24 h, their pupils were dilated with 0.5% tropicamide. The mice were force-fed in the dark 1 h before light exposure. Mice were exposed to constant light (two cool white fluorescent lamps, OSRAM of 26 watts, 1800 lm, a maximum photopic efficiency of ~470 nm, light intensity averaged to 24 mW/cm^2, corresponding to ≈20.000 Lux) for 1.50 h in a white plastic bucket with a fan. Mice were kept in the dark for 5 days before we performed the final retinal evaluations. Throughout the experiment, the ambient temperature was 22 °C, which was identical to that of the breeding box, to avoid an increase in body temperature, which could further damage the retina.
All electrophysiological examinations were conducted using the Visiosystem (SIEM, France). Animals were prepared and anesthetized, and electroretinogram recording (binocular full-field ERG) was performed with cotton electrodes, as previously described.

The nature of data set [3]: Solubility of IP-DHA in SNEDDS excipients. Type of data set: physicochemical.
A short description of a further data set: Caco-2 permeability. Type of data set: in vitro ADME. The conditions noted are these: human, Caco-2, pH 6.5/7.4, 10 μM. The protocol:
Caco-2 cells are human intestinal epithelial cells that are derived from a colorectal adenocarcinoma. Cells were seeded at 1 × 10^5 cells/cm^2 in 96-well Multiscreen^TM plates (Millipore). This assay was performed in either the apical-to-basolateral (A–B) or B–A direction. IP-DHA was prepared at 10 μM in HBSS-MES (pH 6.5) or HBSS-HEPES (pH 7.4), with a final DMSO concentration of 1%. The working solution was then centrifuged, and the supernatant was added to the donor side. The assay plate was incubated at 37 °C with gentle shaking for 60 min or 40 min for the A–B or B–A assays, respectively. Samples were aliquoted from the donor side at time zero and from the end point, and from the receiver side at the end point. Samples were analyzed via HPLC-MS/MS, as described in Section 2.2.3.
The apparent permeability coefficient (Papp) in cm/s of IP-DHA was calculated as follows: Papp=VR×CRend/Δt×1/A×CDmind−CRmind where VR is the volume of the receiver chamber. CR(end) is the concentration of IP-DHA in the receiver chamber at the end time point, Δt is the incubation time, A is the surface area of the cell monolayer, and CD(mid) is the calculated mid-point concentration of the test compound on the donor side, which is the mean value of the donor concentration at time 0 min and the donor concentration at the end time point. […]
A general note: Caco-2 cells form a polarised layer with tight junctions and transporters.

The subject of data set [4] is ABCA4KO mice. Nature of the data set: Acute light-induced retinal degeneration, histological analysis. It counts as in vivo. The following applies: 100 mg/kg oral, acute white light; dark-adapted mice 2.2. The protocol: as §1, §2
All animals were killed via cervical dislocation. The eyes were rapidly enucleated and fixed in 4% paraformaldehyde for 24 h at 4 °C. Eyecups were embedded in paraffin and cut into 5 μm sagittal sections. […] The thickness of the inner nuclear layer (INL) and the outer nuclear layer (ONL) was measured and expressed in arbitrary units using ImageJ software. […]

A short description of a further data set: Log P of IP-DHA. Type of data set: physicochemical.
Data set [5] can be described thus: IP-DHA stability and solubility in gastric- and intestinal-simulated fluids. Type of data set: in vitro ADME. On the set-up: half-life: dose or concentration left out as unconfirmed. As to the method:
The chemical stability of free IP-DHA and IP-DHA loaded in SNEDDS at 30 mg/mL was evaluated in a gastric and an intestinal environment (Table 1). A total of 150 µL of free IP-DHA (solubilized in MeOH) or SNEDDS-IP-DHA loaded at 30 mg/mL were placed in 20 mL of freshly prepared SGF or ISF under magnetic stirring at 150 rpm in a water bath at 37 °C. Samples were collected at 0, 30, 60, and 90 min for the stability analysis in SGF, or 0, 20, 40, 60, 80, 100, and 120 min for the stability analysis in ISF. A total of 500 µL of the medium was recovered and diluted with 500 µL of MeOH to stop the enzymatic degradation reaction. The samples were centrifuged (Sigma centrifuge 2K15) for 10 min at 15,000 rpm. The supernatant was removed and IP-DHA was quantified as described in Section 2.3.5.

The next data set deals with retinal cells. On the set-up: method as in PMID 27072643. The following applies: in vitro; cited from earlier work.
The test system of data set [6] is ABCA4KO (−/−) mouse model. On the set-up: method as in PMID 32641711. The conditions noted are these: intravenous route, cited from earlier work.
Data set [7] can be described thus: Solubility of IP-DHA in PBS, SGF and ISF without enzymes. Type of data set: physicochemical. The conditions noted are these: for solubility: thermodynamic from solid, n = 3. As to the method:
Solubility was evaluated in PBS (pH 7.4), SGF, and ISF (Table 1) without enzymes (pepsin and pancreatin). An excess of IP-DHA was added for each medium type, followed by mixing using a vortex mixer (Vortex Génie 2) and equilibration at room temperature. Next, the mixtures were centrifuged at 3000 rpm (Sigma centrifuge 2K15) for 15 min. The supernatant from each sample was diluted with methanol. The concentration of IP-DHA in each sample was determined using the µHPLC/MS-MS analysis, as described in Section 2.2.3.

Details of data set [8]: method as in PMID 27151507. The following applies: administered dose of 25 mg/kg; cited from earlier work.
A further data set concerns rats. The following applies: 25 mg/kg/day oral with corn oil, 30 days, 1.5 h/day (1500 Lux); cited from earlier work.

Converted amounts (≈) assume the structure as drawn. Where two headings read alike, the source gives them in different places.

Take `CC1=C(/C=C/C(C)=C/C=C/C(C)=C/C=C/C=C(C)/C=C/C=C(C)/C=C/C2=C(C)C(=O)[C@@H](O)CC2(C)C)C(C)(C)C[C@H](O)C1=O` [Astaxantin]: the Photoreceptor protection entry in the data set with ddY mice (dissolved in olive oil, 100 mg/kg oral, white light 3 h at 8000 Lux) was “partially preserve photoreceptors”.

As a reminder, the solubility is the dissolved amount per volume that the medium holds. Usually Papp B→A stands for how fast a substance crosses the layer from the basolateral side. A word on the Papp A→B: it is how fast a substance crosses the layer from the apical side. The logP is the decadic logarithm of the partition coefficient of the neutral form, usually between octanol and water. On to `CC/C=C\C/C=C\C/C=C\C/C=C\C/C=C\C/C=C\CCC(=O)Oc1cc(O)cc(OC(C)C)c1` [IP-DHA, phloroglucinol-isopropyl-DHA], for which the half-life is 10 min in data set [1]; 11 min in data set [5] (ISF with pancreatin and bile salts, pH 7.4, 37 °C, read-out: T1/2 of IP-DHA in intestinal environment (ISF)). Besides, the “a-wave, % of photoreceptor activity remaining vs dark-adapted mice” value in the data set with ABCA4KO mice [2] was found to be 42%. In addition, the “b-wave, % of photoreceptor activity remaining vs dark-adapted mice” value in the data set with ABCA4KO mice [2] worked out at 39%. Further, the solubility in data set [3] (Labrasol, surfactant, read-out: Solubility of IP-DHA in Labrasol) is 46 ± 2.15 mg/mL (≈ 96.1 mM); in data set [3] (Phosal 53 MCT, oil or lipid, oil phase, read-out: Solubility of IP-DHA in Phosal 53 MCT), 25.5 ± 3.27 mg/mL (≈ 53.2 mM); in [3] (Transcutol HP, organic solvent or mixture, co-surfactant, read-out: Solubility of IP-DHA in Transcutol HP), 45 ± 2.16 mg/mL (≈ 94.1 mM); in data set [7] (PBS, pH 7.4, aqueous buffer, room temperature, read-out: Solubility in PBS, pH 7.4), 0.0115 ± 0.00153 mg/mL (≈ 0.0241 mM); in data set [7] (pH 1.5, simulated gastric fluid, free IP-DHA, SGF without pepsin, read-out: Solubility in SGF), 0.00739 ± 0.00026 mg/mL (≈ 0.0154 mM); in data set [7] (pH 7.4, fassgf or other biorelevant, free IP-DHA, ISF without pancreatin, read-out: Solubility in ISF), 0.0102 ± 0.00012 mg/mL (≈ 0.0213 mM). Moreover, the Papp B→A at 40 min, 10 μM in the data set “Caco-2 permeability” (40 min) came out at 0.7 ± 0.05 ×10⁻⁶ cm/s. Further, in “Caco-2 permeability” (60 min), the Papp A→B at 60 min, 10 μM stood at 1 ± 0.14 ×10⁻⁶ cm/s. Further, the “INL/ONL ratio of thickness” value in the data set with ABCA4KO mice [4] turned out to be 0.7. For the same molecule, in the data set “Log P of IP-DHA”, the logP is greater than 5. For the same molecule, the “Stability of IP-DHA in gastric medium (SGF)” value in data set [5] (SGF with pepsin, pH 1.5, 37 °C, up to 90 min) is “remained stable”. In addition, the “Toxicity on retinal cells” value in the data set on retinal cells is listed as “absence of the toxicity”. Moreover, the Protection of photoreceptors in data set [6] (IP-DHA associated with BSA at 30 mg/kg) is given as 80–85%. Also, the “Effect on the retinoid visual cycle” value in [6] is “did not affect the retinoid visual cycle”. Besides, the BCS classification entry in [7] (from poor solubility and poor Caco-2 permeability) is recorded as “BCS Class IV”.

For the molecule `CC(=O)N1CCN(c2ccc(N)c(-n3ccnc3)c2)CC1` [NSP-116], the Cmax in plasma in data set [8] was 7000 ng/mL. Further, in the data set on ddY mice (suspended in water with 0.5% CMC, 30 mg/kg oral 30 min before white light 8000 Lux for 3 h), the Photoreceptor protection result is given as “effective in protecting photoreceptors”.

For `CC1=C[C@H](O)CC(C)(C)[C@H]1/C=C/C(C)=C/C=C/C(C)=C/C=C/C=C(C)/C=C/C=C(C)/C=C/C1=C(C)C[C@@H](O)CC1(C)C` [lutein], the Photoreceptor protection result in the data set on rats is recorded as “demonstrated its efficacy for protecting photoreceptors”.

Source of the values: paper PMC9147958, “Formulation and Evaluation of SNEDDS Loaded with Original Lipophenol for the Oral Route to Prevent Dry AMD and Stragardt’s Disease” (Pharmaceutics, 2022).
